The results in this text go back to patent US20240376073A1 (Hoffmann-La Roche Inc., priority 2021, published 2024).

Molecules are shown by their SMILES. Structures can show the parent of a compound that is named as a salt.

The first assay relates to Acinetobacter baumannii ATCC17961. The assay can be described thus: Antimicrobial susceptibility testing: 90% growth inhibitory concentration (IC90) determination. Type of assay: cell-based. The conditions noted are these: Acinetobacter baumannii ATCC17961; Iso-Sensitest broth; growth by OD 600 nm over 16 h; 35±2° C.; read-out: ATCC 17961 IC90. Put shortly: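 Twofold serial dilutions (e.g. 50 to 0.097 μM final) in Iso-Sensitest broth, inoculated at ~5×10^(5) CFU/ml, incubated at 35±2° C. OD600 read every 20 min over 16 h; IC90 derived from growth inhibition during logarithmic growth.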
For `COc1ccc(-c2cnc(C(=O)Nc3ccc(C(=O)N4CCN(C(=O)[C@@H]5C[C@@](C)(O)C[N+]5(C)C)CC4)c(Cl)c3)n2C)c(F)c1F` [Example B30, (2S,4R)-2-(4-(2-chloro-4-(5-(2,3-difluoro-4-methoxyphenyl)-1-methyl-1H-imidazole-2-carboxamido)benzoyl)piperazine-1-carbonyl)-4-hydroxy-1,1,4-trimethylpyrrolidin-1-ium formate], the IC90 amounted to 110 nM. The same measure, in the same setting: to `COCCCn1cc(CNC(=O)c2ccc(NC(=O)c3ncc(-c4ccc(OC)c(F)c4F)n3C)cc2Cl)c[n+]1C` [Example A25, N-[3-chloro-4-[1-(3-methoxypropyl)-2-methyl-pyrazol-2-ium-4-yl]methylcarbamoyl]phenyl]-5-(2,3-difluoro-4-methoxy-phenyl)-1-methyl-imidazole-2-carboxamide; formate] belongs 410 nM; to `COc1ccc(-c2cnc(C(=O)Nc3ccc(C(=O)N4CCN(C(=O)C5CC[N+](C)(CC6CNC6)CC5)CC4)c(Cl)c3)n2C)c(F)c1F` (stereo not shown) [Example C16, N-[4-[4-[1-(azet-idin-3-ylmethyl)-1-methyl-piper-idin-1-ium-4-carbonyl]piper-azine-1-carbon-yl]-3-chloro-phenyl]-5-(2,3-difluoro-4-meth-oxy-phenyl)-1-methyl-imid-azole-2-carbox-amide; formic acid; formate], 100 nM; to `COc1ccc(-c2cnc(C(=O)Nc3ccc(C(=O)N4CCN(C(=O)CC5CC[N+](C)(C)C5)CC4)c(Cl)c3)n2C)c(F)c1F` (stereo not shown) [Example B13, N-[3-chloro-4-[4-[2-(1,1-dimethylpyrrolidin-1-ium-3-yl)acetyl]piperazine-1-carbonyl]phenyl]-5-(2,3-difluoro-4-methoxy-phenyl)-1-methyl-imidazole-2-carboxamide; formate], 68 nM. As for `COc1ccc(-c2cnc(C(=O)Nc3ccc(C(=O)NCc4cnc(NC(=O)C5CC[N+](C)(C)CC5)s4)c(Cl)c3)n2C)c(F)c1F` [Example A29, N-[5-[2-chloro-4-[[5-(2,3-difluoro-4-methoxy-phenyl)-1-methyl-imidazole-2-carbonyl]amino]benzoyl]amino]methyl]thiazol-2-yl]-1,1-dimethyl-piperidin-1-ium-4-carboxamide; formate], the IC90 worked out at 170 nM.

As to `COc1ccc(-c2cnc(C(=O)Nc3ccc(C(=O)N4C[C@H]5CN(C(=O)C[N+](C)(C)C)C[C@H]5C4)c(Cl)c3)n2C)c(F)c1F` [Example B19, [2-[(3aS,6aR)-5-[2-chloro-4-[[5-(2,3-difluoro-4-methoxy-phenyl)-1-methyl-imidazole-2-carbonyl]amino]benzoyl]-1,3,3a,4,6,6a-hexahydropyrrolo[3,4-c]pyrrol-2-yl]-2-oxo-ethyl]-trimethyl-ammonium; formate], the IC90 stood at 310 nM. On the same count and under the same terms, the figure for `COc1ccc(-c2cnc(C(=O)Nc3ccc(C(=O)N4CCN(C(=O)C5CC[N+](C)(CC(=O)O)CC5)CC4)c(Cl)c3)n2C)c(F)c1F` (stereo not shown) [Example C8, 2-[4-[4-[2-chloro-4-[[5-(2,3-difluoro-4-methoxy-phen-yl)-1-methyl-imidazole-2-carbonyl]amino]-benzoyl]piper-azine-1-carbon-yl]-1-methyl-piperidin-1-ium-1-yl]acetic acid; formate] is 640 nM.

As for `COc1ccc(-c2cnc(C(=O)Nc3ccc(C(=O)NCCCCC[N+](C)(C)CC(N)=O)c(Cl)c3)n2C)c(F)c1F` [Example A3, (2-amino-2-oxo-ethyl)-[5-[[2-chloro-4-[[5-(2,3-difluoro-4-methoxy-phenyl)-1-methyl-imidazole-2-carbonyl]amino]benzoyl]amino]pentyl]-dimethyl-ammonium; formate], the IC90 is 160 nM. On to `Cn1c(-c2ccc(OCC#N)c(F)c2F)cnc1C(=O)Nc1ccc(C(=O)N2CCN(C(=O)CC[N+](C)(C)C)CC2)c(Cl)c1` [Example B9, [3-[4-[2-chloro-4-[[5-[4-(cyanomethoxy)-2,3-difluoro-phenyl]-1-methyl-imidazole-2-carbonyl]amino]benzoyl]piperazin-1-yl]-3-oxo-propyl]-trimethyl-ammonium; iodide], for which the IC90 stood at 56 nM. Same read-out and setting: the figure for `COc1ccc(-c2cnc(C(=O)Nc3ccc(C(=O)N4CCN(C(=O)CC[N+](C)(C)C)CC4)c(C)c3)n2C)c(F)c1F` [Example B8, [3-[4-[4-[[5-(2,3-Difluoro-4-methoxy-phenyl)-1-methyl-imidazole-2-carbonyl]amino]-2-methyl-benzoyl]piperazin-1-yl]-3-oxo-propyl]-trimethyl-ammonium;2,2,2-trifluoroacetate] is 180 nM; for `Cn1c(-c2ccc(OCC#N)c(F)c2F)cnc1C(=O)Nc1ccc(C(=O)NCCOCC[N+](C)(C)CC(N)=O)c(Cl)c1` [Example A13, (2-amino-2-oxo-ethyl)-[2-[2-[[2-chloro-4-[[5-[4-(cyanomethoxy)-2,3-difluoro-phenyl]-1-methyl-imidazole-2-carbonyl]amino]benzoyl]amino]ethoxy]ethyl]-dimethyl-ammonium formate] it is 640 nM.

The same assay, now with this note: Acinetobacter baumannii, ATCC17961, 16 h, read-out: ATCC 17961 IC90, Acinetobacter baumannii ATCC17961; Iso-Sensitest broth; growth by OD 600 nm over 16 h; 35±2° C.
In the case of `Cn1c(-c2ccc(OCF)c(F)c2Cl)cnc1C(=O)Nc1ccc(C(=O)N2CCN(C(=O)C3CC[N+](CC(=O)O)(CC4CNC4)CC3)CC2)c(Cl)c1` (stereo not shown) [Example C41, 2-[1-(azetidin-3-ylmethyl)-4-[4-[2-chloro-4-[[5-[2-chloro-3-fluoro-4-(fluoromethoxy)phenyl]-1-methyl-imidazole-2-carbonyl]amino]benzoyl]piperazine-1-carbonyl]piperidin-1-ium-1-yl]acetic acid formate], the IC90 stood at 480 nM. Still for that read-out and setting: to `Cn1c(-c2ccc(OC(F)F)c(F)c2F)cnc1C(=O)Nc1ccc(C(=O)N2CCN(C(=O)C[N+]3(C)CCNCC3)CC2)c(Cl)c1` [Example C24, N-[3-chloro-4-[4-[2-(1-methylpiperazin-1-ium-1-yl)acetyl]piperazine-1-carbonyl]phenyl]-5-[4-(difluoromethoxy)-2,3-difluoro-phenyl]-1-methyl-imidazole-2-carboxamide;2,2,2-trifluoroacetate;2,2,2-trifluoroacetic acid] belongs 63 nM; to `COc1ccc(-c2cnc(C(=O)Nc3ccc(C(=O)N4CCN(C(=O)[C@@H]5C[C@@H](O)C[N+]5(C)C)CC4)c(Cl)c3)n2C)c(F)c1Cl` [Example B48, 5-(3-chloro-2-fluoro-4-methoxy-phenyl)-N-[3-chloro-4-[4-[(2S,4R)-4-hydroxy-1,1-dimethyl-pyrrolidin-1-ium-2-carbonyl]piperazine-1-carbonyl]phenyl]-1-methyl-imidazole-2-carboxamide formate], 76 nM.

Regarding `COc1ccc(-c2cnc(C(=O)Nc3ccc(C(=O)N4CCN(C(=O)[C@@H]5C[C@H](O)C[N+]5(C)C)CC4)c(Cl)c3)n2C)c(F)c1F` [Example B34, N-[3-chloro-4-[4-[(2S,4S)-4-hydroxy-1,1-dimethyl-pyrrolidin-1-ium-2-carbonyl]piperazine-1-carbonyl]phenyl]-5-(2,3-difluoro-4-methoxy-phenyl)-1-methyl-imidazole-2-carboxamide; formate], the IC90 is 140 nM. Turning to `COc1ccc(-c2cnc(C(=O)Nc3ccc(C(=O)N4CCN(C(=O)[C@@H]5C[C@@H](O)C[N+]5(C)C)CC4)c(Cl)c3)n2C)c(Cl)c1F` [Example B43, 5-(2-chloro-3-fluoro-4-methoxy-phenyl)-N-[3-chloro-4-[4-[(2S,4R)-4-hydroxy-1,1-dimethyl-pyrrolidin-1-ium-2-carbonyl]piperazine-1-carbonyl]phenyl]-1-methyl-imidazole-2-carboxamide; formate], the IC90 amounted to 120 nM.

What is called IC90 is the point of the concentration-response curve where the effect stands at 90%.
